The record followed here is patent US10934263B2, “Charged ion channel blockers and methods for use” (Nocion Therapeutics, Inc., priority 2019, dated 2021).

Bounds are passed on as bounds.

For data set [1], the target named is T1, NaV1.7 (Homo sapiens, UniProt Q15858).
T1 construct: expressed in transfected cells; tetracycline-inducible, kept under hygromycin and blasticidin
As to the kind of experiment: Whole cell patch clamp, internal block of NaV1.7 current (compound in internal solution). Format: cell-based. The note with it: compound applied internally, manual patch clamp, read-out: Nav1.7 Intracellular Inhibition. Here is the method:
Representative compounds of the invention were synthesized according to the described methods and tested for the ability to inhibit voltage-gated sodium channels.
NaV1.7 was expressed upon induction with tetracycline. Cells were cultured in DMEM containing 10% dialyzed Fetal Bovine Serum (VWR, Radnor, Pa.), 1% Glutamax (VWR, Radnor, Pa.), 1% Penicillin-Streptomycin (VWR, Radnor, Pa.), 100 mg/L Hygromycin (Thermo Fisher Scientific, Waltham, Mass. and 5 mg/L Blasticidin (Alfa Aesar, Haverhill, Mass.). Cells were grown and maintained at 37° C. in a humidified environment containing 10% CO2 in air. Cells were detached from the culture flask for passage and harvested using 0.05% Trypsin-EDTA (Thermo Fisher Scientific, Waltham, Mass.). To induce NaV1.7, cells were induced with tetracycline (0.1-1 μg/mL, IBI Scientific, Peosta, Iowa) the day before recording and plated onto 24-well plates. Cells were washed with DPBS (VWR, Radnor, Pa.), trypsinized and then triturated five times in 10 mL of growth media to break apart cell aggregates. For one 24-well plate, 2 mL of cell suspension was mixed with 23 mL of fresh growth media and 0.1-1 μg/mL tetracycline added. 1 ml of mixed media with cells was then added to each well of a 24-well plate, with a 12 mm coverslip already placed in the bottom of the well. Cells were then incubated in 37° C. and 10% CO2 overnight.
The intracellular solution contained the following (in mM) CsCl 135, NaCl 10, EGTA 10, HEPES 10, MgCl2 2, adjusted to pH 7.2 with CsOH. The external solution was a normal Ringer solution containing (in mM) NaCl 155, HEPES 10, glucose 10, KCl 3.5, CaCl2 1.5, MgCl2 1 adjusted to pH 7.4 with NaOH. CsCl is from Alfa Aesar, Haverhill, Mass. All other chemicals are from Sigma-Aldrich, St. Louis, Mo. In order to test the degree of internal block by test compounds the compounds were dissolved in internal solution at the indicated test concentration. […] In order to test the degree of external block by test compounds the compounds were dissolved in external solution at the indicated test concentration.
18-24 hours after cells were induced with tetracycline, coverslips were placed into a chamber filled with Normal Ringer solution at room temperature and the chamber placed on a microscope. Pipettes were pulled from borosilicate glass on a P97 puller (Sutter Instrument, Novato, Calif.) and polished with a MF-830 Microforge (Narishige International USA, Inc, Amityville, N.Y.) to have a resistance of 1.5-2.5 MΩ when filled with CsCl internal solution at room temperature. Healthy cells (those that are round and translucent with no visible blemishes) were chosen for seal formation. A seal was formed between the pipette and the cell, and a brief pulse of suction was used to “break in” and establish the whole-cell configuration. The membrane potential was held at −100 mV before the voltage protocol began. Only cells with series resistance between 1.5-5 MΩ were retained for analysis. The voltage protocol was as follows: Cells were held at −100 mV for 12 ms followed by a hyperpolarizing step to −105 mV for 12 ms to monitor the leak. Cells were then stepped back to −100 mV for 40 ms. Cells were then depolarized to −20 mV for 10 ms and then returned to −100 mV for 26 ms.
Once the recording was started, the voltage protocol was run at 30 second intervals for 5 minutes to get a stable baseline. This was followed by four 30-second periods of 5 Hz stimulation of the same voltage protocol separated by 1 minute of rest which was then followed by 0.33 Hz stimulation after the last train. Currents were recorded using PatchMaster software with Heka EPC10 (HEKA Electronics, Lambrecht, Germany). Only cells with inward current amplitudes at −20 mV between 400 pA and 4 nA were accepted. In addition, cells having leak currents greater than 10% of their current amplitudes were discarded. […]
In general terms: Patch clamp records ionic current or voltage across a cell membrane.

Data set [2] in a line: PAMPA membrane permeability assay. It is filed as in vitro ADME. As to conditions: PAMPA permeability coefficient, GIT lipid, buffer pH 7.4, 4 hours incubation. On the procedure: The PAMPA assay (pION, Inc., Woburn Mass.) was used to determine the ability of compounds of the invention to cross an artificial lipid membrane by passive diffusion. Test compounds were dissolved in DMSO (10 mM) and diluted 200-fold in buffer (pION Inc., pH 7.4) to provide 50 uM stock solutions. Buffer (150 μL) was added to a UV blank plate and stock solutions (150 μL) were transferred to a UV reference plate. The blank and reference spectrum were read using a spectrophotometer. Stock solutions (200 μL) were added to the donor plate of the PAMPA sandwich plate and an accept plate painted with GIT lipid (pION Inc, 5 μL) was placed on top. Buffer (200 μL) was added to the acceptor plate and the PAMPA sandwich plate was incubated for 4 hours. Aliquots (150 μL) from the acceptor plate were added to a UV plate and read as acceptor spectrum. Aliquots (150 μL) of the donor solutions were added to a UV analysis plate and read as donor spectrum. The permeability coefficient of test compounds was calculated using PAMPA Explorer™ software (version 3.5.0.4) based on the AUC of the reference plate, the donor plate, and the acceptor plate.
In general terms: The PAMPA barrier holds no transporters, so it reflects passive diffusion.

T1 sequence (Q15858 whole entry): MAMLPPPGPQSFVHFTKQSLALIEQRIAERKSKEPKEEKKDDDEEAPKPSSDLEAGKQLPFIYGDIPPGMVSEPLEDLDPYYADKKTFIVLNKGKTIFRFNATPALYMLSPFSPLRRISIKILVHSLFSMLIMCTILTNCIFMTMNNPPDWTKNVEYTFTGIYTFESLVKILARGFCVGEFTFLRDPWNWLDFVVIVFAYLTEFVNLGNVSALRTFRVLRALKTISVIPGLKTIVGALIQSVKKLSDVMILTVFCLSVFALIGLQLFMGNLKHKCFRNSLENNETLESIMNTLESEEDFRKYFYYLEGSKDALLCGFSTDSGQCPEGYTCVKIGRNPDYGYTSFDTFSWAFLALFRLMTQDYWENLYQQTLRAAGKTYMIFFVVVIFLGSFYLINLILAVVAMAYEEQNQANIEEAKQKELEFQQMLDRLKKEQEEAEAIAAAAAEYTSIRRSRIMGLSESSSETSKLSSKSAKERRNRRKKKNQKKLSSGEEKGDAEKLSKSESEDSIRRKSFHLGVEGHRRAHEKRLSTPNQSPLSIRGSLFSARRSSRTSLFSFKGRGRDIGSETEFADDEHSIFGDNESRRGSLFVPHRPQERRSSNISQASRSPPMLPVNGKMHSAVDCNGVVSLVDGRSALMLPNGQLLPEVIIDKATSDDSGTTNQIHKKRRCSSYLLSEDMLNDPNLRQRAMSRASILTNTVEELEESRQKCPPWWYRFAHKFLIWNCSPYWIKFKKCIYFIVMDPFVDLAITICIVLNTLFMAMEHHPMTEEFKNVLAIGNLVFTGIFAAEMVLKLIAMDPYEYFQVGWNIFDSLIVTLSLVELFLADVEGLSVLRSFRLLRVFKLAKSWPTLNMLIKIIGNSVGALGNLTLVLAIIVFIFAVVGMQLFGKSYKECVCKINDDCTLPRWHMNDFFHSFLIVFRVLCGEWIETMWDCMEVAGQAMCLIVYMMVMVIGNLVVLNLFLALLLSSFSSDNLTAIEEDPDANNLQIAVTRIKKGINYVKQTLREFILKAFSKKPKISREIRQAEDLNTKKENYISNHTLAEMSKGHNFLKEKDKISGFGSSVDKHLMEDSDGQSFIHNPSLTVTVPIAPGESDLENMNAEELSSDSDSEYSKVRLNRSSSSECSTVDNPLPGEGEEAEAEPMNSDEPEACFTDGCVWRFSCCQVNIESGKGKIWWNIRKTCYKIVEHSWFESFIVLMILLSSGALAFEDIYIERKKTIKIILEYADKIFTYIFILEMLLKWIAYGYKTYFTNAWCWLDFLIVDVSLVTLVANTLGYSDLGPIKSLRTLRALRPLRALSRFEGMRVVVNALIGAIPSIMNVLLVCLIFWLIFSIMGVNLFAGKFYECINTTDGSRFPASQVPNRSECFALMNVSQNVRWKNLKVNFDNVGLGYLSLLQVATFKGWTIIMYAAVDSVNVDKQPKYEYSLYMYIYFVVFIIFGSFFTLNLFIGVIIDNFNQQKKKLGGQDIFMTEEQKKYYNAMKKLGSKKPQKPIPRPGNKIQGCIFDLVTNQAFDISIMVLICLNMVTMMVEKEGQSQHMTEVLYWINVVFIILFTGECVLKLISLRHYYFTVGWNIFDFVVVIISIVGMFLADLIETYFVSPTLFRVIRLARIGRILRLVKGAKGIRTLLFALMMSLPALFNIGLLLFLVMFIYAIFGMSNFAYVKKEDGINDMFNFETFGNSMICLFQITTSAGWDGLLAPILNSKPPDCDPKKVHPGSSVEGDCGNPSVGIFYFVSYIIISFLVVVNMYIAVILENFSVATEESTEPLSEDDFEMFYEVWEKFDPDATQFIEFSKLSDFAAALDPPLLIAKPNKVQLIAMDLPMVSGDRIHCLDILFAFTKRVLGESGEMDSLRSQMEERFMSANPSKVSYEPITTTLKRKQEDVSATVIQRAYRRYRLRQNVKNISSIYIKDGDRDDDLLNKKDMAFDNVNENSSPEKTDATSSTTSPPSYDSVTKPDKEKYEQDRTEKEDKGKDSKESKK

Consider `Cc1cccc(C)c1NC(=O)C[n+]1ccccc1.[Br-]` [Compound 1A, 1-(2-((2,6-dimethylphenyl)amino)-2-oxoethyl) pyridin-1-ium bromide], for which the inhibition (commonly the change of the read-out against control, counted positive when it falls) at 32 µM in data set [1] lay within 70 to 95%. For the same compound, the “PAMPA (10^−6 cm/s)” value in data set [2] is reported as “++ (0.1-2.0 10^−6 cm/s)”. On the same counts, the results for `Cc1cccc(C)c1NC(=O)C[n+]1ccn(C)c1.[Br-]` [Compound 2A, 3-(2-((2,6-dimethylphenyl)amino)-2-oxoethyl)-1-methyl-1H-imidazol-3-ium bromide] are 40 to 70% and “+ (<0.1 10^−6 cm/s)”. For the compound `CCC(C(=O)Nc1c(C)cccc1C)[n+]1ccccc1.[Br-]` (centres unmarked) [Compound 3A, 1-(1-((2,6-dimethylphenyl)amino)-1-oxobutan-2-yl)pyridin-1-ium bromide], in data set [1], the inhibition at 32 µM was 70 to 95%. In addition, in data set [2], the “PAMPA (10^−6 cm/s)” value is “++ (0.1-2.0 10^−6 cm/s)”. In the case of `CCC(C(=O)Nc1c(C)cccc1C)[n+]1ccn(C)c1.[Br-]` (centres unmarked) [Compound 4A, 3-(1-((2,6-dimethylphenyl)amino)-1-oxobutan-2-yl)-1-methyl-1H-imidazol-3-ium bromide], the inhibition at 32 µM in data set [1] was 40 to 70%. Moreover, in data set [2], the “PAMPA (10^−6 cm/s)” value is on record as “+ (<0.1 10^−6 cm/s)”. As to `Cc1cccc(C)c1NC(=O)C[n+]1ccccc1C.[Br-]` [Compound 5A, 1-(2-((2,6-dimethylphenyl)amino)-2-oxoethyl)-2-methylpyridin-1-ium bromide], the inhibition at 32 µM in data set [1] lay in the range of 70 to 95%. For the same compound, the “PAMPA (10^−6 cm/s)” value in data set [2] is recorded as “+ (<0.1 10^−6 cm/s)”. The like results for `Cc1cc(F)cc(C)c1NC(=O)C[n+]1ccccc1.[Br-]` [Compound 7A, 1-(2-((4-fluoro-2,6-dimethylphenyl)amino)-2-oxoethyl) pyridin-1-ium bromide] were, in that order, less than 40% and “+ (<0.1 10^−6 cm/s)”. Regarding `Cc1cc(C)c(NC(=O)C[n+]2ccccc2)c(C)c1.[Br-]` [Compound 8A, 1-(2-(mesitylamino)-2-oxoethyl)pyridin-1-ium bromide], the inhibition at 32 µM in data set [1] was less than 40%. Also, in data set [2], the “PAMPA (10^−6 cm/s)” value was “+ (<0.1 10^−6 cm/s)”. On the same counts, the results for `Cc1cc(Cl)cc(C)c1NC(=O)C[n+]1ccccc1.[Br-]` [Compound 9A, 1-(2-((4-chloro-2,6-dimethylphenyl)amino)-2-oxoethyl) pyridin-1-ium bromide] are less than 40% and “+ (<0.1 10^−6 cm/s)”. Turning to `COc1cc(C)c(NC(=O)C[n+]2ccccc2)c(C)c1.[Br-]` [Compound 10A, 1-(2-((4-methoxy-2,6-dimethylphenyl)amino)-2-oxoethyl) pyridin-1-ium bromide], in data set [1], the inhibition at 32 µM was less than 40%. The “PAMPA (10^−6 cm/s)” value in data set [2] is given as “+ (<0.1 10^−6 cm/s)”.

Turning to `Cc1cc(C#N)cc(C)c1NC(=O)C[n+]1ccccc1.[Br-]` [Compound 11A, 1-(2-((4-cyano-2,6-dimethylphenyl)amino)-2-oxoethyl) pyridin-1-ium bromide], in data set [1], the inhibition at 32 µM is less than 40%. In data set [2], the “PAMPA (10^−6 cm/s)” value is reported as “+ (<0.1 10^−6 cm/s)”. Take `Cc1cccc(C)c1NC(=O)C[n+]1ccc(-c2ccccc2)cc1.[Br-]` [Compound 14A]: in data set [1], the inhibition at 32 µM was less than 40%. Further, the “PAMPA (10^−6 cm/s)” value in data set [2] was “+ (<0.1 10^−6 cm/s)”. With `Cc1cccc(C)c1NC(=O)C[n+]1ccc2ccccc2c1.[Br-]` [Compound 15A], in data set [1], the inhibition at 32 µM is more than 95%. Besides, the “PAMPA (10^−6 cm/s)” value in data set [2] is given as “++ (0.1-2.0 10^−6 cm/s)”. The like results for `Cc1cccc(C)c1NC(=O)C[n+]1cccc2ccccc21.[Br-]` [Compound 18A] were, in that order, more than 95% and “+ (<0.1 10^−6 cm/s)”.

`CCc1cc[n+](CC(=O)Nc2c(C)cccc2C)cc1` [Compound 19A]: the inhibition at 32 µM in data set [1] was in the range of 70 to 95%. The same measure, in the same setting: the value for `Cc1cccc(C)c1NC(=O)C[n+]1cccc(C2CCCCC2)c1` [Compound 20A] was 70 to 95%. As to `Cc1cccc(C)c1NC(=O)C[n+]1cccc(C2CCCC2)c1.[Br-]` [Compound 21A], in data set [1], the inhibition at 32 µM is more than 95%. Besides, the “PAMPA (10^−6 cm/s)” value in data set [2] is listed as “+ (<0.1 10^−6 cm/s)”.

For the compound `Cc1cccc(C)c1NC(=O)C[n+]1c(C)ccc(-c2ccccc2)c1C.[Br-]` [Compound 23A], the inhibition at 32 µM in data set [1] was more than 95%. Also, the “PAMPA (10^−6 cm/s)” value in data set [2] was “+ (<0.1 10^−6 cm/s)”. For `Cc1cccc(C)c1NC(=O)C[n+]1cccn1CC(C)C.[Br-]` [Compound 27A], the “PAMPA (10^−6 cm/s)” value in data set [2] is given as “+ (<0.1 10^−6 cm/s)”. Turning to `Cc1cccc(C)c1NC(=O)C[n+]1cccn1C1CCCCC1.[Br-]` [Compound 28A], the “PAMPA (10^−6 cm/s)” value in data set [2] is given as “+ (<0.1 10^−6 cm/s)”. Take `CCNC(=O)Cn1ccc[n+]1CC(=O)Nc1c(C)cccc1C.[Br-]` [Compound 30A, 2-(2-((2,6-dimethylphenyl)amino)-2-oxoethyl)-1-(2-(ethylamino)-2-oxoethyl)-1H-pyrazol-2-ium bromide]: the “PAMPA (10^−6 cm/s)” value in data set [2] was “++ (0.1-2.0 10^−6 cm/s)”.

On to `Cc1cccc(C)c1NC(=O)C[n+]1cccc(C(C)C)c1` [Compound 31A], for which the inhibition at 10 µM in data set [1] was in the range of 70 to 95%. Regarding `Cc1cccc(C)c1NC(=O)C[n+]1cc2ccccn2c1` [Compound 35], the inhibition at 10 µM in data set [1] lay within 40 to 70%.

Turning to `Cc1cccc(C)c1NC(=O)C[n+]1ccn(-c2ccccc2)c1` [Compound 37], in data set [1], the inhibition at 10 µM was 70 to 95%. Regarding `Cc1cccc(C)c1NC(=O)C[n+]1ccn(Cc2ccccc2)c1` [Compound 38], in data set [1], the inhibition at 10 µM lay in the range of 70 to 95%.

As for `Cc1ccc[n+](CC(=O)Nc2c(C)cccc2C)c1` [Compound 39], in data set [1], the inhibition at 10 µM fell in the range of 70 to 95%. Regarding `Cc1cccc(C)c1NC(=O)C[n+]1cccc(O)c1` [Compound 42], the inhibition at 10 µM in data set [1] is less than 40%.

Consider `COc1ccc[n+](CC(=O)Nc2c(C)cccc2C)c1` [Compound 43], for which the inhibition at 10 µM in data set [1] was 70 to 95%. As to `Cc1cccc(C)c1NC(=O)C[n+]1cccc(F)c1` [Compound 44], the inhibition at 10 µM in data set [1] fell in the range of 70 to 95%. Turning to `Cc1cccc(C)c1NC(=O)C[n+]1cccc(Cl)c1` [Compound 45], the inhibition at 10 µM in data set [1] lay within 70 to 95%. The same measure, in the same setting: next, `Cc1cccc(C)c1NC(=O)C[n+]1cccc(C#N)c1` [Compound 52]: 70 to 95%; `Cc1cccc(C)c1NC(=O)C[n+]1ccnc(C)c1C` [Compound 55]: 40 to 70%.

With `CCCn1cc[n+](CC(=O)Nc2c(C)cccc2C)c1` [Compound 57], the inhibition at 10 µM in data set [1] lay within 70 to 95%. The same measure, in the same setting: the value for `CCOC(=O)c1c[n+](CC(=O)Nc2c(C)cccc2C)cn1C` [Compound 61] was 40 to 70%. `Cc1cccc(C)c1NC(=O)C[n+]1ccn(-c2ccc(Cl)cc2)c1` [Compound 64]: the “PAMPA (10^−6 cm/s)” value in data set [2] is “++ (0.1-2.0 10^−6 cm/s)”. In the case of `Cc1cccc(C)c1OC(=O)C[n+]1cccn1C1CCCCC1` [Compound 111], the inhibition at 10 µM in data set [1] is more than 95%.
